Assay results: US20110270151A1, “IMAGE-GUIDED ENERGY DEPOSITION FOR TARGETED DRUG DELIVERY” (The Methodist Hospital Research Institute, priority 2008, published 2011)
Counter-ions that a name gives are not always drawn.

What was measured:
Hsp70 [1] = conditions: cited from earlier work
Hsp70 [2] = conditions: cited from earlier work; remark: listed apart in the source
[3] = basic or acidic aqueous solution; cited from earlier work
HSP70 [4] = biological target: T1, HSP70 (Mus musculus, UniProt Q61696); experiment: in vivo analysis of FAM-labeled bifunctional molecule after hind limb heating; design: species or system mice; conditions: 20 nmol i.v., about 4 hours post-injection (8 hrs post hyperthermia), dermis dissected
T1 construct: imaging an inducible target using an endogenous protein involved in stress response; from tissue; host or cells: heated right hind limb of live mice
T1 sequence (Q61696 whole entry): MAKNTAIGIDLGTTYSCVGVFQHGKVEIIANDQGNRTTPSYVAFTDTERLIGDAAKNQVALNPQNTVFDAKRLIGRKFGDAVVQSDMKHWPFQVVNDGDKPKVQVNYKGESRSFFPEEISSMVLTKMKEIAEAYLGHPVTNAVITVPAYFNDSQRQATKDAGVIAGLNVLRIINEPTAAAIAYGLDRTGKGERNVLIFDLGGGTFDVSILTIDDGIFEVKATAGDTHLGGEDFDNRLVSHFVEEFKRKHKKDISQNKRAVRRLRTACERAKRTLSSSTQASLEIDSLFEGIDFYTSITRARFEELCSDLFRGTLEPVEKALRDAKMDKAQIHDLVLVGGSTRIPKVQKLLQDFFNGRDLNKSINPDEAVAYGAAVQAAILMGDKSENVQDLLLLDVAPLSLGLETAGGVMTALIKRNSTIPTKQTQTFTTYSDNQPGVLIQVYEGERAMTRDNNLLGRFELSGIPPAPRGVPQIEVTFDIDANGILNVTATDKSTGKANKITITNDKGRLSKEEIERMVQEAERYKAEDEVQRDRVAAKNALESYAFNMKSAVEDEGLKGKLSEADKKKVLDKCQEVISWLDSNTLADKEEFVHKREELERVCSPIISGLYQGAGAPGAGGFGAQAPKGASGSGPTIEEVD
Experimental: As a control, 6-carboxyfluorescein (6-FAM) was administered at the same dose (20 nmol) in the same manner. Due to the high intrinsic autofluorescence of the dermis, experimental mice were sacrificed, the dermis dissected, and imaged on a small animal dedicated optical system (Xenogen/Caliper IVIS-200) using the appropriate excitation/emission filter set.

Row | fluorescence in heated limb tissue (HSP70 [4]) | SMILES | Kd (Hsp70 [1]) | effect on Hsp70 steady state ATPase activity (Hsp70 [2]) | hydrolytic stability [3]
1 |  | N=C(N)NCCCCCCC(=O)N[C@@H](O)C(=O)NCCCCNCCCN (racemic) [Compound 15-DSG, (±)7-[(aminoiminomethyl)amino]-N-[2-[[4-[(3-aminopropyl)amino]butyl]amino]-1-hydroxy-2-oxoethyl]heptanamide trihydrochloride] | 4 µM | stimulates | hydrolyses gradually
2 | minimal level of fluorescence | O=C(O)c1ccc2c(c1)C1(OC2=O)c2ccc(O)cc2Oc2cc(O)ccc21 [Compound 6-FAM, 6-carboxyfluorescein] |  |  | 
